Activity calls are given as the source filed them. The calls are words filed in the database; no cut-off is given here.
Key:
HepG2 [1] = experiment: Cytotoxicity against HepG2 cells; format: functional; details: Homo sapiens
PANC-1 = experiment: Cytotoxicity against PANC1 cells; format: functional; details: Homo sapiens
HepG2 [2] = experiment: Antitumor activity against HepG2 cells xenografted nude mouse at 9 mg/kg, ip twice per day on every third day for four cycles; format: functional, organism-based; set-up: dose 9 mg/kg; details: Homo sapiens
[3] = Inhibition of NF-kappaB-mediated gene transcription in HepG2 cells by luciferase reporter gene assay; format: cell-based; details: Homo sapiens
[4] = Inhibition of CRE-mediated gene transcription in HepG2 cells by luciferase reporter gene assay; format: cell-based; details: Homo sapiens
HepG2 [5] = experiment: Down regulation of cyclin D1 expression in HepG2 cells; format: functional, cell-based; details: Homo sapiens
Mus musculus [6] = experiment: Reduction of body weight in HepG2 xenografted nude mouse at 9 mg/kg, ip after 10 days; format: ADME, organism-based; set-up: dose 9 mg/kg, route intraperitoneal; scale not given: the % may be the effect or the level left; details: in vivo, 240 h
Mus musculus [7] = experiment: Reduction of body weight in HepG2 xenografted nude mouse at 9 mg/kg, ip after 9 days; format: ADME, organism-based; set-up: dose 9 mg/kg, route intraperitoneal; scale not given: the % may be the effect or the level left; details: in vivo, 216 h

With `COc1ccc2c3c(c4cc(OC)c(O)cc4c2c1)CN1CCC[C@@H]1C3` the GI50 (HepG2 [1]) was 13 nM, the GI50 (PANC-1) was 11 nM and the Activity (HepG2 [2]) was “inactive”. The IC50 [3] was 11 nM, the IC50 [4] was 135 nM and the Activity (HepG2 [5]) was “Dose-dependent effect”.
In the case of `COc1cc2c(cc1OC)-c1cc(OC)c(OC)cc1C1CN3CCC[C@H]3C=C21` (some centres not stated), the IC50 [3] is reported as over 300 nM and the IC50 [4] is reported as over 300 nM.
In the case of `COc1cc2c3c(c4cc(OC)c(OC)cc4c2cc1OC)[C@H](O)[C@@H]1CCCN1C3`, the Activity (Mus musculus [6]) is reported as 15%, the Activity (Mus musculus [7]) is reported as 15% and the IC50 [4] is reported as 1070 nM.
Work on `COc1cc2c3c(c4cc(OC)c(OC)cc4c2cc1OC)[C@@H](O)[C@@H]1CCCN1C3` yielded an IC50 [3] of 315 nM and an IC50 [4] of over 300 nM.
In the case of `COc1cc2c3c(c4cc(OC)c(OC)cc4c2cc1O)CN1CCC[C@H]1[C@H]3O`, the GI50 (HepG2 [1]) is reported as over 600 nM, the IC50 [3] is reported as 322 nM and the IC50 [4] is reported as over 300 nM.
Compound `COc1ccc2c3c(c4cc(OC)c(O)cc4c2c1)C[N+]1([O-])CCC[C@H]1[C@H]3O` (some centres not stated) [TYLOPHORIDICINE C] has a GI50 (HepG2 [1]) of 98 nM, a GI50 (PANC-1) of 67 nM and an IC50 [3] of 600 nM. The IC50 [4] was over 1000 nM and the Activity (HepG2 [5]) was “Dose-dependent effect”.
`COc1cc2c3c(c4ccc(O)cc4c2cc1OC)[C@H](O)[C@@H]1CCCN1C3` [TYLOPHORIDICINE E] gave a GI50 (HepG2 [1]) of over 5000 nM, a GI50 (PANC-1) of over 5000 nM and an IC50 [3] of over 1000 nM. For the same compound, the IC50 [4] was over 1000 nM and the Activity (HepG2 [5]) was “Dose-dependent effect”.
For `COc1ccc2c3c(c4cc(OC)c(OC)cc4c2c1)C[N+]1([O-])CCC[C@H]1[C@@H]3O` (some centres not stated) [TYLOPHORIDICINE F], the GI50 (HepG2 [1]) was 71 nM, the GI50 (PANC-1) was 63 nM and the IC50 [3] was 367 nM. For the same compound, the IC50 [4] was over 1000 nM and the Activity (HepG2 [5]) was “Dose-dependent effect”.
In the case of `COc1ccc2c3c(c4cc(OC)c(O)cc4c2c1)CN1CCC[C@H]1[C@H]3O` [TYLOPHORINIDINE], the GI50 (HepG2 [1]) is reported as 11 nM, the GI50 (PANC-1) is reported as 7 nM and the Activity (HepG2 [2]) is reported as “Active”. For the same compound, the IC50 [3] was 10 nM, the IC50 [4] was 95 nM and the Activity (HepG2 [5]) was “Dose-dependent effect”.
`COc1ccc2c3c(c4cc(OC)c(OC)cc4c2c1)CN1CCC[C@H]1[C@@H]3O` [TYLOPHORININE] showed a GI50 (HepG2 [1]) of 20 nM, a GI50 (PANC-1) of 11 nM and an IC50 [3] of 12 nM. For the same compound, the IC50 [4] was 80 nM and the Activity (HepG2 [5]) was “Dose-dependent effect”.
